Experimental data reported in patent US20090247579A1, “2-[3H-THIAZOL-2-YLIDINEMETHYL]PYRIDINES AND RELATED COMPOUNDS AND THEIR USE” (CANCER RESEARCH TECHNOLOGY LIMITED, priority 2006, published 2009).
Several values for one entry are separate records, joined by “and”; a condition that tells them apart may be missing. Equal values may be shown once. Read-outs that look alike come from different tables or passages of the source.

Key:
HT29 = experiment: Modified MTT assay, colon panel HT29; assay type: cell-based
Procedure: (§1) Relative drug sensitivities (Resistance Factor) and IC50 values were determined by a modified MTT assay (see, e.g., Mosmann, 1983; Plumb et al., 1989), as described below: • (1) Trypsinise a sub-confluent monolayer culture and collect cells in growth medium containing serum. Centrifuge the suspension (200 g, 5 minutes) to pellet cells, re-suspend in growth medium, and count cells. Dilute cells to a density of 5×10^3 cells/mL allowing 60 mL of cell suspension for 3 microtitre plates. Transfer cell suspension to a 10 cm petri dish, and with a multichannel pipette add 200 μL to each well of the central 10 columns of a flat bottomed 96-well plate (80 wells per plate) starting with column 2 and ending with column 11. Add 200 μL of growth medium to the 8 wells in columns 1 and 12. […] Glycine buffer is added (25 μL per well) to all wells containing DMSO. • (8) Absorbance is recorded at 570 nm with the wells in column 1, which contained medium and MTT but no cells used as a blank. • (9) A graph is plotted of absorbance (y-axis) against drug concentration (x-axis). The mean absorbance reading from the wells in columns 2 and 11 is used as the control absorbance and the IC50 concentration is determined as the drug concentration required to reduce the absorbance to half that of the control. IC10 or IC90 values can be determined in the same manner. […]

LDAN = experiment: Cancer cell line panel, LDAN (NSCLC); assay type: cell-based
Procedure: as §1

HCT116 (MLH1) = experiment: Modified MTT assay, colon panel HCT116; assay type: cell-based, human
Procedure: as §1

T47D = experiment: Cancer cell line panel, T47D (breast); assay type: cell-based
Procedure: as §1

OVCAR3 = experiment: Cancer cell line panel, OVCAR3 (ovary); assay type: cell-based
Procedure: as §1

HCT15 (MSH6) = experiment: Modified MTT assay, colon panel HCT15; assay type: cell-based
Procedure: as §1

[1] = system: A1 (MLH1+ve, MMR proficient); experiment: Modified MTT assay, A1 line (A2780/cp70 + chromosome 3, MLH1 +ve); assay type: cell-based, human
Procedure: (§2) Relative drug sensitivities (Resistance Factor) and IC50 values were determined by a modified MTT assay (see, e.g., Mosmann, 1983; Plumb et al., 1989), as described below: • (1) Trypsinise a sub-confluent monolayer culture and collect cells in growth medium containing serum. Centrifuge the suspension (200 g, 5 minutes) to pellet cells, re-suspend in growth medium, and count cells. Dilute cells to a density of 5×10^3 cells/mL allowing 60 mL of cell suspension for 3 microtitre plates. Transfer cell suspension to a 10 cm petri dish, and with a multichannel pipette add 200 μL to each well of the central 10 columns of a flat bottomed 96-well plate (80 wells per plate) starting with column 2 and ending with column 11. Add 200 μL of growth medium to the 8 wells in columns 1 and 12. Put the plates in a plastic box and incubate in a humidified atmosphere at 37° C. for 2-3 days so that cells are in the exponential phase of growth for drug addition. • (2) Prepare a serial 5-fold dilution of the cytotoxic drug in growth medium to give 8 concentrations. Pipette 6 mL of growth medium in to each of 7 universal containers (30 mL). Prepare 10 mL of the highest concentration of the drug and transfer 1.5 mL of this solution to the first universal container. Mix and then transfer 1.5 mL to the next universal container. Continue until the seventh universal container is reached. The concentrations should be chosen so that the highest concentration kills most of the cells and the lowest kills none of the cells. Normally, three plates are used for each drug to give triplicate determinations within one experiment. • (3) The medium is removed from all the wells in columns 2 to 11. This can be achieved with a hypodermic needle attached to a suction line. Cells in the 8 wells in columns 2 and 11 are fed with 200 μL of fresh growth medium. The drug solutions are transferred to 10 cm petri dishes and 200 μL added to all 8 wells of a column. For ease of analysis arrange the drug solutions in order so that the highest is in column 3 down to the lowest in column 10. Plates are returned to the plastic box and incubated for 24 hours. • (4) At the end of the drug exposure period, the medium is removed from all wells containing cells and the cells are fed with 200 μL of fresh medium. • (5) The plates are fed daily for two more days. • (6) The plates are fed with 200 μL of fresh medium and 50 μL of the MTT solution (5 mg/mL in PBS) is added to all wells in columns 1 to 11. Plates are wrapped in aluminium foil and incubated for 4 hours in a humidified atmosphere at 37° C. • (7) The medium and MTT are then removed from the wells and the purple MTT-formazan crystals dissolved by addition of 200 μL of DMSO to all wells in columns 1 to 11. Glycine buffer is added (25 μL per well) to all wells containing DMSO. • (8) Absorbance is recorded at 570 nm with the wells in column 1, which contained medium and MTT but no cells used as a blank. • (9) A graph is plotted of absorbance (y-axis) against drug concentration (x-axis). The mean absorbance reading from the wells in columns 2 and 11 is used as the control absorbance and the IC50 concentration is determined as the drug concentration required to reduce the absorbance to half that of the control. IC10 or IC90 values can be determined in the same manner.
(§3) A1, E1, and A2 are derived by transfer of human chromosome 3 into A2780/cp70. MLH1 is located on chromosome 3.
(§4) IC50 values (μM) for A1 (MLH1+ve, MMR proficient) or E1 (MLH1+ve, MMR proficient) and A2 (MLH1−ve, MMR deficient) lines and Resistance Factors (RF) (the fold difference in resistance between the A2 line, MMR deficient, and the A1 line, MMR proficient) were determined based on the MTT assay described above for several compounds of the present invention (including, e.g., MMR201). Compounds showing increased activity against the MLH1 deficient A2 line compared to the MLH1 proficient A1 or E1 line have RF values less than 1.

A2780/mcp1 = experiment: Modified MTT assay, A2780/mcp1 (cisplatin resistant, MMR deficient); assay type: cell-based, human; conditions: 24 hour drug exposure; for IC50: MTT; for A2780/mcp1 RF (Resistance Factor): fold difference in resistance from parental A2780
Procedure: as §2
A2780/cp70 and A2780/mcp1 have lost expression of MLH1, have lost MMR activity, and have microsatellite instability compared to A2780. The CpG island at the MLH1 gene is methylated in A2780/cp70 and A2780/mcp1, but not A2780.
IC50 values (μM) for A2780, A2780/cp70, and A2780/mcp1 and Resistance Factors (RF) (the fold difference in resistance from parental A2780) were determined based on the MTT assay described above for several compounds of the present invention (including, e.g., MMR201).

WIL = experiment: Cancer cell line panel, WIL (NSCLC); assay type: cell-based
Procedure: as §1

MDAMB231 = experiment: Cancer cell line panel, MDAMB231 (breast); assay type: cell-based
Procedure: as §1

T84 = experiment: Modified MTT assay, colon panel T84; assay type: cell-based
Procedure: as §1

SKMES = experiment: Cancer cell line panel, SKMES (NSCLC); assay type: cell-based
Procedure: as §1

OVCAR4 = experiment: Cancer cell line panel, OVCAR4 (ovary); assay type: cell-based
Procedure: as §1

HS852 = experiment: Cancer cell line panel, HS852 (melanoma); assay type: cell-based
Procedure: as §1

PC3 = experiment: Cancer cell line panel, PC3 (prostate); assay type: cell-based
Procedure: as §1

[2] = system: A2 (MLH1−ve, MMR deficient); experiment: Modified MTT assay, A2 line (A2780/cp70 + chromosome 3, MLH1 -ve); assay type: cell-based, human; conditions: for IC50: A2 line; for RF (Resistance Factor): fold difference in resistance between A2 (MMR deficient) and A1 (MMR proficient)
Procedure: as §2, §3, §4

SMILES: N.N.[Cl][Pt][Cl] [Cisplatin, reference compound]
- IC50 (HT29; read-out: Cisplatin IC50, MMR proficient, p53 mut): 5.67 ± 0.64 µM
- IC50 (LDAN; read-out: Cisplatin): 1.23 ± 0.07 µM
- IC50 (HCT116 (MLH1); read-out: Cisplatin IC50, MMR deficient, p53 wt): 2.13 ± 0.03 µM
- IC50 (T47D; read-out: Cisplatin): 5.42 ± 0.22 µM
- IC50 (OVCAR3; read-out: Cisplatin): 0.239 ± 0.02 µM
- IC50 (HCT15 (MSH6); read-out: Cisplatin IC50, MMR deficient, p53 wt/mut): 2.92 ± 0.02 µM
- IC50 ([1]; read-out: A1 or E1 MLH1 +ve MMR proficient IC50): 0.715 ± 0.069 µM
- IC50 (A2780/mcp1): 0.547 µM and 0.672 µM
- A2780/mcp1 RF (Resistance Factor) (A2780/mcp1): 2.5 and 2.8
- IC50 (WIL; read-out: Cisplatin): 3.94 ± 0.22 µM
- IC50 (MDAMB231; read-out: Cisplatin): 11.2 ± 0.7 µM
- IC50 (T84; read-out: Cisplatin IC50, MMR proficient, p53 ?): 4.23 ± 0.86 µM
- IC50 (SKMES; read-out: Cisplatin): 5.16 ± 0.08 µM
- IC50 (OVCAR4; read-out: Cisplatin): 1.64 ± 0.15 µM
- IC50 (HS852; read-out: Cisplatin): 1.6 ± 0.09 µM
- IC50 (PC3; read-out: Cisplatin): 2.27 ± 0.27 µM
- IC50 [2]: 1.91 ± 0.087 µM
- RF (Resistance Factor) [2]: 2.7

SMILES: CC[n+]1c(/C=C2\Sc3oc4ccccc4c3N2C)ccc2cc(C)ccc21.[I-] [MMR201]
- IC50 (HT29; Homo sapiens, HT-29, MMR proficient, p53 mut, read-out: MMR201 IC50): 0.118 ± 0.0091 µM
- IC50 (LDAN; read-out: MMR201): 0.1144 ± 7e-05 µM
- IC50 (HCT116 (MLH1); Homo sapiens, HCT-116, MMR deficient, p53 wt, read-out: MMR201 IC50): 0.0379 ± 0.0031 µM
- IC50 (T47D; Homo sapiens, read-out: MMR201): 0.319 ± 0.026 µM
- IC50 (OVCAR3; Homo sapiens, OVCAR-3, read-out: MMR201): 0.253 ± 0.022 µM
- IC50 (HCT15 (MSH6); Homo sapiens, HCT-15, MMR deficient, p53 wt/mut, read-out: MMR201 IC50): 0.584 ± 0.0551 µM
- IC50 ([1]; Homo sapiens, A2780/CP70, read-out: A1 or E1 MLH1 +ve MMR proficient IC50): 0.121 ± 0.018 µM
- IC50 (A2780/mcp1; Homo sapiens, A2780/mcp1): 0.014 ± 0.001 µM
- A2780/mcp1 RF (Resistance Factor) (A2780/mcp1): 0.24
- IC50 (WIL; read-out: MMR201): 0.153 ± 0.0137 µM
- IC50 (MDAMB231; Homo sapiens, MDA-MB-231, read-out: MMR201): 0.235 ± 0.0225 µM
- IC50 (T84; Homo sapiens, MMR proficient, p53 ?, read-out: MMR201 IC50): 1.47 ± 0.175 µM
- IC50 (SKMES; read-out: MMR201): 0.398 ± 0.0619 µM
- IC50 (OVCAR4; Homo sapiens, OVCAR-4, read-out: MMR201): 0.733 ± 0.0412 µM
- IC50 (HS852; read-out: MMR201): 0.0753 ± 0.0071 µM
- IC50 (PC3; Homo sapiens, PC-3, read-out: MMR201): 0.531 ± 0.0503 µM
- IC50 ([2]; Homo sapiens, A2780/CP70): 0.023 ± 0.001 µM
- RF (Resistance Factor) [2]: 0.19
